The results in this text go back to publication PMC9332213, “Simple Detection of DNA Methyltransferase with an Integrated Padlock Probe” (Biosensors, 2022).

pIC50: −log10 of the molar value.

This assay deals with T1, M.SssI (Spiroplasma monobiae, UniProt P15840).
T1 construct: gene sssIM
In words: padlock probe/RCA fluorescence methyltransferase activity assay with commercial M.SssI ([…] U/mL). It counts as biochemical.

T1 sequence (P15840 whole entry): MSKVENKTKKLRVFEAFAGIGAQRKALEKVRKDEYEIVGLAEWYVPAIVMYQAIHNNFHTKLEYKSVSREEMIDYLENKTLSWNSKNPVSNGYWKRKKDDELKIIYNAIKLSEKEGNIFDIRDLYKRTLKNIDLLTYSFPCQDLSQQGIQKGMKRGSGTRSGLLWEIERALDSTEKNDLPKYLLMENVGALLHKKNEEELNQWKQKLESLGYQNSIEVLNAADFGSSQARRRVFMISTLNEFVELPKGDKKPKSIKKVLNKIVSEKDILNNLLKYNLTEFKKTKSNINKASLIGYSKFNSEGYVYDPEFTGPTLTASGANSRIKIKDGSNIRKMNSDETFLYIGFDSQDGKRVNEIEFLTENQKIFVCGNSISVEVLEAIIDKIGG

`O=c1[nH]cc(F)c(=O)[nH]1` [5-F, 5-fluorouracil]: the pIC50 is 5.05. Take `Nc1ncn([C@@H]2O[C@H](CO)[C@@H](O)[C@H]2O)c(=O)n1` [5-Aza, 5-Azacytidine]: the pIC50 was 5.31.
